Read-outs that look alike come from different tables or passages of the source.
Tests used:
human HDAC11 = target: T1, human HDAC11 (Homo sapiens, UniProt Q96DB2); experiment: HDAC11 inhibitor enzymatic assay, % inhibition at fixed concentration
T1 sequence (Q96DB2 1-347): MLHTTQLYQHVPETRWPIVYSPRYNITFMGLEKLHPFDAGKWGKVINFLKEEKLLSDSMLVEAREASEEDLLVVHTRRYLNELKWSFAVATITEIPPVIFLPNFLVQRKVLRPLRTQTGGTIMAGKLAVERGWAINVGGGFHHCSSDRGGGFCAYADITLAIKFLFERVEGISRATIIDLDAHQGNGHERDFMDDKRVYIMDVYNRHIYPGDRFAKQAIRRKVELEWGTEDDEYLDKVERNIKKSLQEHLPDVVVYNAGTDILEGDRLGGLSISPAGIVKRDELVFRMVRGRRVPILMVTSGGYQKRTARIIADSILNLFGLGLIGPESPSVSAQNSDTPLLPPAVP

human HDAC4 = human HDAC4 (Homo sapiens, UniProt P56524); experiment: HDAC4 inhibitor enzymatic assay, % inhibition at fixed concentration
Chain of human HDAC4 (P56524 627-1084 limits assumed): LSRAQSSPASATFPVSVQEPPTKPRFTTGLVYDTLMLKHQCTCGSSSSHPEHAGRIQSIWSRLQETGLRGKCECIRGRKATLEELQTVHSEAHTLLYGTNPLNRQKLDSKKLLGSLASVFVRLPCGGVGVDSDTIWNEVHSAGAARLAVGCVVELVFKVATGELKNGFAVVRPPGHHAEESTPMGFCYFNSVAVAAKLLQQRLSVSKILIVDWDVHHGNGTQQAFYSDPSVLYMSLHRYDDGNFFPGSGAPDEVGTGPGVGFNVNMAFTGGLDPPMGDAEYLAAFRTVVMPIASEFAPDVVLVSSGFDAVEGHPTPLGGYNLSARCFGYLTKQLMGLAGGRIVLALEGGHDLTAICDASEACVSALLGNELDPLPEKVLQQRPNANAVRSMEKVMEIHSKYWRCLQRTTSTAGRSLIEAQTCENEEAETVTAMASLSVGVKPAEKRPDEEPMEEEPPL

human HDAC8 = target: T2, human HDAC8 (Homo sapiens, UniProt Q9BY41); experiment: HDAC8 inhibitor enzymatic assay, % inhibition at fixed concentration; type: biochemical
T2 construct: purchased BPS Bioscience 50008
T2 sequence (Q9BY41 1-377): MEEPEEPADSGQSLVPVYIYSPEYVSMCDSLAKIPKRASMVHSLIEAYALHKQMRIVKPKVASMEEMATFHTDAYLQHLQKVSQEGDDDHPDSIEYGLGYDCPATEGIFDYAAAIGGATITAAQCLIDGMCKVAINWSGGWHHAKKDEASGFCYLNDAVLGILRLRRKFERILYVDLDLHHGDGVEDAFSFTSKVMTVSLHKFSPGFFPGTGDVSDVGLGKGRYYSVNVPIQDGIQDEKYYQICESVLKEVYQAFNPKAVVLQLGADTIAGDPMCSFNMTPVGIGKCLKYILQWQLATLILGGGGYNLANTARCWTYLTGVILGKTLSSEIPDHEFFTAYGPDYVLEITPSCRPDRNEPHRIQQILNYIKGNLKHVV

human HDAC5 = human HDAC5 (Homo sapiens, UniProt Q9UQL6); experiment: HDAC5 inhibitor enzymatic assay, % inhibition at fixed concentration
Chain of human HDAC5 (Q9UQL6 656-1122 limits assumed): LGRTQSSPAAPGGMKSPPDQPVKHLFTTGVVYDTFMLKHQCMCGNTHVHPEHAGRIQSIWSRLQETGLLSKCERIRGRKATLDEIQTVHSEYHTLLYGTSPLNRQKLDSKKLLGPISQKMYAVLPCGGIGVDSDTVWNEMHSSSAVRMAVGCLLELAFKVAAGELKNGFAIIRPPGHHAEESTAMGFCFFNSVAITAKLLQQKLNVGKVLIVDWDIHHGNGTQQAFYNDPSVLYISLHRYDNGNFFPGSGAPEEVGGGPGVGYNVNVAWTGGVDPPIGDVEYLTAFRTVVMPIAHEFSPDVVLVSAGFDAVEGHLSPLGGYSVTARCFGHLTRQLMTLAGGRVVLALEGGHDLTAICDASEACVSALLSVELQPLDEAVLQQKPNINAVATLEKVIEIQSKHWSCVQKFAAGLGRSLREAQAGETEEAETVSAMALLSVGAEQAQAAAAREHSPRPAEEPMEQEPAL

human HDAC9 = human HDAC9 (Homo sapiens, UniProt Q9UKV0); experiment: HDAC9 inhibitor enzymatic assay, % inhibition at fixed concentration
Chain of human HDAC9 (Q9UKV0 1-1066 isoform Q9UKV0-5): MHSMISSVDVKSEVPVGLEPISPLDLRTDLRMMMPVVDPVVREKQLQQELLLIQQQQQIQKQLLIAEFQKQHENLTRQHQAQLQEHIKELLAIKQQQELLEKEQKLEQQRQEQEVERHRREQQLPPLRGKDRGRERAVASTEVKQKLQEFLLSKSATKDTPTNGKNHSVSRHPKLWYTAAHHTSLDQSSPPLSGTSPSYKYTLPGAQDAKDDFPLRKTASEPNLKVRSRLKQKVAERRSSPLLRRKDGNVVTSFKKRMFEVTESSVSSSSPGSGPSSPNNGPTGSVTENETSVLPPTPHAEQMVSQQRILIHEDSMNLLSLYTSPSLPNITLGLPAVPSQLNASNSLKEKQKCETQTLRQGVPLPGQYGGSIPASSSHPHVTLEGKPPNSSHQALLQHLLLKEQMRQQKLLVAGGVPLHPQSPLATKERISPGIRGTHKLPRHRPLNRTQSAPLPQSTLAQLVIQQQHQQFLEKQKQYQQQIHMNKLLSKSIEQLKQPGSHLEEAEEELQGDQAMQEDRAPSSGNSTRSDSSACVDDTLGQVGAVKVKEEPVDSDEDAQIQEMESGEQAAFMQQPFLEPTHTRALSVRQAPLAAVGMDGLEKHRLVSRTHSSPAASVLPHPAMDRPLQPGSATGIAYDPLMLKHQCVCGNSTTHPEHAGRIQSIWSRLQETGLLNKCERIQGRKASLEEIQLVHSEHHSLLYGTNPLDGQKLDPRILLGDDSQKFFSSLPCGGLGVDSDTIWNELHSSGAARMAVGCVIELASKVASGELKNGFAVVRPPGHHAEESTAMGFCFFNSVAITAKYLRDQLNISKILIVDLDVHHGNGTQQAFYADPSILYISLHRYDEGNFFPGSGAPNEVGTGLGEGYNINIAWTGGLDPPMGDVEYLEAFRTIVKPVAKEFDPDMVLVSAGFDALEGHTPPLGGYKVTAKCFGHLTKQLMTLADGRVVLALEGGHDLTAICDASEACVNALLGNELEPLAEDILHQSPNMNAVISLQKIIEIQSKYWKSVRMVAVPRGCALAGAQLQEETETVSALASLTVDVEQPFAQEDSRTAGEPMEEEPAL

human HDAC6 [1] = target: T3, human HDAC6 (Homo sapiens, UniProt Q9UBN7); experiment: IC50 of the test inhibitor against HDAC6 (10-dose enzymatic assay); type: biochemical; set-up: purchased BPS Bioscience 50006
T3 sequence (Q9UBN7 1-1215): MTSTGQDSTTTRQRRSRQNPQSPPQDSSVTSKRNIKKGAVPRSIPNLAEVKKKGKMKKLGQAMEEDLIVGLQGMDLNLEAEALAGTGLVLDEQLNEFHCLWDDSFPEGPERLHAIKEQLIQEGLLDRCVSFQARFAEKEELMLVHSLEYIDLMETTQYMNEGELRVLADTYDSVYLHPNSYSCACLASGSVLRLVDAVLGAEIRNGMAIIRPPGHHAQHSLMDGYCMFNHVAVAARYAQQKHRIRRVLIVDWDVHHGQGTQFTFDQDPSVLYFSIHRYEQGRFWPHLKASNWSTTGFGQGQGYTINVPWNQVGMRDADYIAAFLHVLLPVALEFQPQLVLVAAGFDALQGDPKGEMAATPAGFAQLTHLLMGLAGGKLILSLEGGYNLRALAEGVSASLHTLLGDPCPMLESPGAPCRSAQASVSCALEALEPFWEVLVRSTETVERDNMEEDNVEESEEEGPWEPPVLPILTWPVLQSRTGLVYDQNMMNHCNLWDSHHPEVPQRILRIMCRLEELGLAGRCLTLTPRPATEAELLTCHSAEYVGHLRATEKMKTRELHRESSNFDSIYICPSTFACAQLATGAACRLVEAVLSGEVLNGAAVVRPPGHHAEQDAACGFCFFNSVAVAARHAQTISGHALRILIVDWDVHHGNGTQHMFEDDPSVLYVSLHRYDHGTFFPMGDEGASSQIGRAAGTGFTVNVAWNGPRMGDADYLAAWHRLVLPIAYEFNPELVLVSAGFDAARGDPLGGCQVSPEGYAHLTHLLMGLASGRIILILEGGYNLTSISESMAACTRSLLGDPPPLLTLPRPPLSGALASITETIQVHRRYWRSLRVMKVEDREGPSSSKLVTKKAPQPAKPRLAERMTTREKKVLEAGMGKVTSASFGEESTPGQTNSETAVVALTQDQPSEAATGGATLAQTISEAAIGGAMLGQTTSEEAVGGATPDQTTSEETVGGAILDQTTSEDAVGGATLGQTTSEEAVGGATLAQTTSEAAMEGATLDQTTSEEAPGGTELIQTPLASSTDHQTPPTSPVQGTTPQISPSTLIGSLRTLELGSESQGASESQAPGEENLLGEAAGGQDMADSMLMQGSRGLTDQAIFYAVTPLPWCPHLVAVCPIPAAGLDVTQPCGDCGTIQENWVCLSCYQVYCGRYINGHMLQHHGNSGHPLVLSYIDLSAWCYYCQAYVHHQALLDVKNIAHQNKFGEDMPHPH

human HDAC6 [2] = target: T3, human HDAC6; experiment: HDAC6 inhibitor enzymatic assay, % inhibition at fixed concentration; settings: read-out: % Inhibition HDAC6
[3] = read-out: HDAC6 % Activity Repeat1
[4] = read-out: HDAC6 % Activity Repeat2

Structure (SMILES): CC(=C/C(C)C(=O)c1ccc(N(C)C)cc1)/C=C/C(=O)NO (centres unmarked) [TSA, Trichostatin A, reference compound]
- inhibition at 1 µM (human HDAC11; read-out: % Inhibition HDAC11): 15%
- inhibition at 100 µM (human HDAC11; read-out: % Inhibition HDAC11): 91%
- inhibition at 10 µM (human HDAC11; read-out: %inhibition of HDACs at 10µM of test compound HDAC11): 49%
- inhibition at 1 µM (human HDAC4; read-out: % Inhibition HDAC4): 36%
- inhibition at 100 µM (human HDAC4; read-out: % Inhibition HDAC4): 92%
- inhibition at 10 µM (human HDAC4; read-out: %inhibition of HDACs at 10µM of test compound HDAC4): 64%
- inhibition at 1 µM (human HDAC8; read-out: % Inhibition HDAC8): 53%
- inhibition at 10 µM (human HDAC8; read-out: %inhibition of HDACs at 10µM of test compound HDAC8): 89%
- inhibition at 1 µM (human HDAC5; read-out: % Inhibition HDAC5): 33%
- inhibition at 100 µM (human HDAC5; read-out: % Inhibition HDAC5): 93%
- inhibition at 10 µM (human HDAC5; read-out: %inhibition of HDACs at 10µM of test compound HDAC5): 64%
- inhibition at 1 µM (human HDAC9; read-out: % Inhibition HDAC9): 15%
- inhibition at 100 µM (human HDAC9; read-out: % Inhibition HDAC9): 95%
- inhibition at 10 µM (human HDAC9; read-out: %inhibition of HDACs at 10µM of test compound HDAC9): 60%
- activity at 30 pM (human HDAC6 [1]; [3]): 100%
- activity at 0.0001 µM (human HDAC6 [1]; [3]): 98%
- activity at 0.0003 µM (human HDAC6 [1]; [3]): 96%
- activity at 0.001 µM (human HDAC6 [1]; [3]): 79%
- activity at 0.003 µM (human HDAC6 [1]; [3]): 63%
- activity at 0.01 µM (human HDAC6 [1]; [3]): 36%
- activity at 0.03 µM (human HDAC6 [1]; [3]): 15%
- activity at 0.1 µM (human HDAC6 [1]; [3]): 5%
- activity at 0.3 µM (human HDAC6 [1]; [3]): 2%
- activity at 1 µM (human HDAC6 [1]; [3]): 0%
- activity at 30 pM (human HDAC6 [1]; [4]): 98%
- activity at 0.0001 µM (human HDAC6 [1]; [4]): 96%
- activity at 0.0003 µM (human HDAC6 [1]; [4]): 89%
- activity at 0.001 µM (human HDAC6 [1]; [4]): 84%
- activity at 0.003 µM (human HDAC6 [1]; [4]): 58%
- activity at 0.01 µM (human HDAC6 [1]; [4]): 34%
- activity at 0.03 µM (human HDAC6 [1]; [4]): 13%
- activity at 0.1 µM (human HDAC6 [1]; [4]): 5%
- activity at 0.3 µM (human HDAC6 [1]; [4]): 2%
- activity at 1 µM (human HDAC6 [1]; [4]): 0%
- inhibition at 1 µM (human HDAC6 [2]): 100%

From PMC6522981, “Structure-based design generated novel hydroxamic acid based preferential HDAC6 lead inhibitor with on-target cytotoxic activity against primary choroid plexus carcinoma” (Journal of Enzyme Inhibition and Medicinal Chemistry, 2019)
